Literature values as cited in patent publication US8410096B2, “Antitumor agent, kit and method of treating cancer” (Shizuoka Prefecture, priority 2008, dated 2013).

System: 5-FU decomposition
Conditions: compared with uracil

Oc1cc(O)c(Cl)cn1 [gimeracil, 2,4-dihydroxy-5-chloropyridine]
5-FU decomposition inhibitory action relative to uracil: about 200 times
